Assay results taken from patent publication US20250129009A1, “Compound and Method for Identifying Impurities Included Therein” (LG CHEM, LTD., priority 2022, published 2025).

Experiment: Measurement of turbidity by UV/Vis spectroscopy (Method 1)
Format: physicochemical
Settings: 20 wt % aqueous solution; for Absorbance: light at 290 nm, 1 mm cuvette, DI water reference
Description: A 20 wt % aqueous solution of the compound is analyzed by UV/Vis spectroscopy to measure the absorbance Abs to light at a wavelength of 290 nm, and the turbidity Tb is derived from the measured absorbance Abs by the following Equation 1.
A 20 wt % aqueous solution of the compound is analyzed by UV/Vis spectroscopy to measure the absorbance Abs to light at a wavelength of 290 nm, and a turbidity Tb is derived from the measured absorbance Abs by the following Equation 1.
The absorbance of light at a wavelength of 290 nm is confirmed by analyzing 5 types of turbidity standard solutions (0, 1, 10, 100, and 1000 NTU, respectively) by UV/Vis spectroscopy (using Agilent 8453, 200 to 1100 nm, resolution 2 nm, 1 mm cuvette). In this case, an empty cuvette cell is used as a reference for measurement. A calibration curve (Equation 1) is derived from the absorbance according to the 0 NTU to 1,000 NTU interval. (NTU: Nephelometric Turbidity Unit, water quality standard 1 NTU)
UV/Vis was measured for Samples 1 to 7 prepared in Preparation Example B above using Method 1 of the present disclosure, and the results are illustrated in FIG. 1. Further, values obtained by converting the measured absorbance (Abs) into turbidity using the following Equation 1 are shown in the following Table 1.
500 mg of each of Samples 1 to 7 were put into a vial, a 20 wt % aqueous solution was prepared using distilled water (DI water), and then UV/Vis spectroscopy (using Agilent 8453, 200 to 1100 nm, resolution 2 nm, 1 mm cuvette) was analyzed to confirm the absorbance of light at a wavelength of 290 nm. In this case, DI water was used as a reference for measurement.
The absorbance of light at a wavelength of 290 nm was confirmed by analyzing 5 types of turbidity standard solutions (0, 1, 10, 100, and 1000 NTU, respectively) by UV/Vis spectroscopy (using Agilent 8453, 200 to 1100 nm, resolution 2 nm, 1 mm cuvette). In this case, an empty cuvette cell was used as a reference for measurement.
A calibration curve (Equation 1) was derived from the absorbance according to the 0 NTU to 1,000 NTU interval. (NTU: Nephelometric Turbidity Unit, water quality standard 1 NTU)
Turbidity was derived by introducing the absorbance of Samples 1 to 7 confirmed in 1) above into Equation 1.

Absorbance	Turbidity (converted from absorbance at 290 nm by Equation 1 (calibration 0 to 1,000 NTU standards))	SMILES
0.1615	–	C=CC(=O)OCC[N+](CCCC)(CCCC)CCCCCCCCCCCC [Sample 2]
0.3459	–	C=CC(=O)OCC[N+](CCCC)(CCCC)CCCCCCCCCCCC [Sample 3]
0.2796	74	C=CC(=O)OCC[N+](CCCC)(CCCC)CCCCCCCCCCCC [Sample 5]
